From publication PMC12298629, “New Derivatives of Caracasine Acid with Anti-Leukemic Activity and Limited Effectiveness in Spheroid Cultures” (Pharmaceuticals, 2025)

What was measured:
RAJI = experiment: Cytotoxic MTS assay, Raji; type: cell-based; details: Raji, human leukemia cell line, 72 h, median of five assays
Text: (§1) The cancer cell lines used in the cytotoxic assays were acquired from the American Tissue Culture Collection (ATCC) (Manassas, VA, USA) and maintained as described previously. The MRC-5 and BJ human fibroblasts were used as non-tumoral control cells. The (MRC-5 LD and BJ LD) are also human fibroblast cell lines resistant to doxorubicin. […] The Raji and Ramos cell lines correspond to B-cell leukemia. Other cells, such as U2OS, represent a child osteosarcoma, while HCT116 is a colorectal tumor cell line. (HCT116p53^−/−, Horizon Discovery Ltd., Cambridge, UK) is a similar cell line with its p53 gene knocked down, serving as a model of human cancer frequently associated with a poor prognosis. The cells were maintained in Nunc/corning 80 cm^2 plastic tissue culture flasks and cultured in a cell culture medium according to ATCC or Horizon recommendations (McCoy, DMEM/RPMI 1640 with 5 g/L glucose, 2 mM glutamine, 100 U/mL penicillin, […] streptomycin, 10% fetal calf serum, and NaHCO3). The compounds were freshly dissolved in DMSO. The final concentration of DMSO was 0.01% in the cell culture.
(§2) The in vitro cytotoxicity of compounds (1–7) was assessed using the standard 3-(4,5-dimethyl-thiazol-2yl)-5-(3-carboxymethoxyphenyl)-2-(sulfophenyl)-2H-tetrazolium (MTS). The assay was performed at the Institute of Molecular and Translational Medicine using a robotic platform (High-ResBiosolutions, Beverly, MA, USA). Cell suspensions were prepared and diluted according to the specific cell type and the expected target cell density (25,000–35,000 cells/mL, based on cell growth characteristics). An automatic pipettor (30 μL) was used to add cells into 384-well microtiter plates. All tested compounds were dissolved in 100% DMSO, and four-fold dilutions of the intended test concentrations were added in 0.15 μL aliquots at time zero to the microtiter plate wells by the echo acoustic non-contact liquid handler Echo550 (Labcyte, San Jose, CA, USA). The assays were accomplished in technical duplicates and at least three biological replicates. The cells were incubated with the tested compound for 72 h at 37 °C in a 5% CO2 atmosphere with 100% humidity. At the end of the incubation period, cells were assayed using the MTS test. Aliquots (5 μL) of the MTS stock solution were pipetted into each well and incubated for 1–4 h. After this incubation period, the optical density (OD) was measured at 490 nm using an Envision reader (PerkinElmer, Waltham, MA, USA). Tumor cell survival (TCS) was calculated using the following equation: TCS = (OD drug-exposed well/mean OD control wells) × 100%. The IC50 value, representing the concentration of the compound lethal to 50% of the tumor cells, was calculated from the corresponding dose-response curves using Dotmatics software (Updated version 2022, London, UK). After three days of incubation on the cancer cell lines and normal fibroblasts, the […] (IC50) were obtained. Five assays were performed for each cell line. The standard error of the assays was lower than 10%, as assessed by the triplicate assays.

HCT116KO53 spheroids = experiment: Spheroid viability assay (CellTiter-Glo 3D), HCT116 p53 KO spheroids; type: cell-based; details: HCT-116, human tumors spheroids, 72 h, 100 pM to 50 μM
Method: (§3) Spheroid culture aims to analyze the drug’s effect on complex structures resembling solid tumors. The spheroids were prepared using the specific nonadherent plates for spheroid formation (Nunc Sphera, Thermo Fisher, Waltham, MA, USA) according to the simple protocol outlined by the manufacturer. The cell lines HCT116 parental, HCT116KOTp53, A549, and U2OS were cultured at a density of 2500 cells per well using medium containing 10% fetal calf serum and antibiotics: McCoy’s 5A medium for HCT116, F-12K (Kaighn’s Modified) for A549, and Dulbecco’s Modified Eagle Medium (DMEM). The cells were grown in culture for 48 h as recommended by the manufacturer and as described by Das et al. and Muñoz-Garcia et al..
(§4) The cell viability of the treated spheroids was assessed using the kit CellTiter-Glo 3D (Promega Corporation, Madison, WI, USA). The kit is designed to measure ATP as an indicator of viability, generating a luminescent readout that is more sensitive than colorimetric or fluorescence-based methods. The spheroids were cultivated with compounds at concentrations ranging from 100 pM to 50 μM in triplicate for 72 h, and the luminescence was measured using the Enspire apparatus (PerkinElmer). A standard curve was performed for each analysis as recommended by the manufacturer.

BJ = experiment: Cytotoxic MTS assay, BJ fibroblasts; type: cell-based; details: BJ, human fibroblasts, 72 h, median of five assays
Text: as §1, §2

caspase 8 = experiment: Caspase 8 activity in lysed HCT116 cells from 2D and spheroids; type: cell-based, human; details: 12 h; for Caspase 8 activity, 2D culture: HCT116 parental, 25 µM; for Caspase 8 activity, spheroid culture: HCT116 parental spheroids, 25 µM (cisplatin 15 μM)
Method: The assay was designed to evaluate the impact of various compounds on caspase activity using a standardized quantity of cell protein lysates after 12 h of incubation. The parental line HCT116 served as the basis for these experiments. Three distinct caspases were examined employing the fluorescence assay kits from Calbiochem (San Diego, CA, USA), specifically a fluorometric caspase-8 assay kit and a fluorimetric caspase-3 assay kit. Additionally, the fluorometric kit from Abcam was utilized to assess caspase-9 activity. Due to the variations in protocols for each caspase, separate plates were prepared for each assay, encompassing both two-dimensional (2D) cell cultures and spheroids. The compound concentrations were established at 25 µM, and assays were conducted in quintuplicate following a 12-h incubation period. The cells were harvested from the plates using the standard trypsin-EDTA solution (Merck Sigma Aldrich, Saint Louis, MO, USA), washed, and counted before lysis, as described in each kit. Cell processing adhered to the guidelines provided by the respective companies, and protein concentration was calculated and standardized using the standard BCA assay. Fluorescent readings were captured using the Enspire apparatus (Perkin-Elmer, MA, USA). Positive controls utilized included staurosporine at a concentration of 5 μM and cisplatin at 15 μM. The kits provided their own standards; however, to normalize all the readings between cultures, types, and treatments, the results were expressed as a percentage relative to the positive control, staurosporine, in 2D culture. […] A total of three separate assays were conducted for each caspase.

CCRF-CEM = experiment: Cytotoxic MTS assay, CCRF-CEM; type: cell-based; details: CCRF-CEM, human leukemia cell line, 72 h, median of five assays
Text: as §1, §2

RAMOS = experiment: Cytotoxic MTS assay, Ramos; type: cell-based; details: Ramos, human leukemia cell line, 72 h, median of five assays
Text: as §1, §2

U2OS = experiment: Cytotoxic MTS assay, U2OS 2D; type: cell-based; details: U2OS, human tumors 2D, 72 h, median of five assays
Text: as §1, §2

K562 = experiment: Cytotoxic MTS assay, K562; type: cell-based; details: K562, human leukemia cell line, 72 h, median of five assays
Text: as §1, §2

HCT116KO53 = experiment: Cytotoxic MTS assay, HCT116 p53 knockout 2D; type: cell-based; details: HCT-116, human tumors 2D, 72 h, median of five assays
Text: as §1, §2

U2OS spheroids = experiment: Spheroid viability assay (CellTiter-Glo 3D), U2OS spheroids; type: cell-based; details: U2OS, human tumors spheroids, 72 h, 100 pM to 50 μM
Method: as §3, §4

IC50 (HCT116KO53 spheroids) [µM] | IC50 (U2OS spheroids) [µM] | Compound | IC50 (RAJI) [µM] | IC50 (BJ) [µM] | Caspase 8 activity, 2D culture (caspase 8) | IC50 (CCRF-CEM) [µM] | IC50 (RAMOS) [µM] | IC50 (U2OS) [µM] | IC50 (K562) [µM] | IC50 (HCT116KO53) [µM] | Caspase 8 activity, spheroid culture (caspase 8)
> 50 | > 50 | C=C(C)C1CCC23CC(CCC2C1(C)CCC(=O)O)C(C)C3=O (single isomer, unassigned; ent-3) [Compound 5, Ent-3,4-Seco-15-Oxo-Kaur-4(19)-en-3-Oic Acid] | > 50 | > 50 | did not induce caspase activity | > 50 | > 50 | > 50 | > 50 | > 50 | 
> 50 | > 50 | C=C(C)C1CCC23CC(CCC2C1(C)CCC(=O)OC(C)=O)C(C)C3=O (single isomer, unassigned; ent-3) [Compound 6, Ent-3,4-Seco-15-Oxo-Kaur-4(19)-en-Acetic Anhydride] | > 50 | > 50 | did not induce caspase activity | > 50 | > 50 | > 50 | > 50 | > 50 | 
> 50 | > 50 | C=C1C(=O)C23CCC(C(=C)C)C(C)(CCC(=O)OC)C2CCC1C3 (stereo not shown) [Compound 2, Caracasine] | 1.45 | 7.28 |  | 0.86 | 0.96 | 3.19 | 3.29 | 1.91 | absence of caspase activity
> 50 | > 50 | C=C1C(=O)C23CCC(C(=C)C)C(C)(CCC(=O)OC(C)=O)C2CCC1C3 (stereo not shown) [Compound 7, Caracasine-Acetic Anhydride] | 2.21 | 7.68 |  | 0.45 | 0.96 | 2.21 | 4.6 | 1.91 | absence of caspase activity
